Data on one compound can be found in patent US20100273722A1, “MODIFIED MINIATURE PROTEINS” (Yale University, priority 2007, published 2010).

The Kd is a measure of binding affinity in units of concentration.

Values joined by “and” are separate entries in the source; they are usually repeats but may differ in a detail not shown here. Equal values may be shown once. Read-outs that look alike come from different tables or passages of the source. Residues, ends and D or L forms follow the SMILES beside them.

Test [1] deals with Hck SH3 domain-GST fusion protein (Homo sapiens, UniProt P08631). The test can be described thus: Fluorescence polarization direct binding assay, Hck SH3. Particulars: 50 nM fluorescently labeled ligand, PBS pH 7.4; read-out: Kd, Hck SH3. How it is done:
(§1) Polarization was measured by excitation with vertically polarized light at 485 nm and the fluorescence emission detected at 530 nm in both the vertical and horizontal directions. An average of five measurements were recorded for each well. Samples were equilibrated at room temperature for 25 min before analysis, a time sufficient for the binding reactions to reach equilibrium. The polarization data were fit using Kaleidagraph v3.6 software to Eq. 5, which is derived from first principles without assumptions. […] In this equation, Pobs is the observed polarization value at any given concentration of target protein (GST•SH3 domain). Pmin is the polarization of peptide^Flu at 50 nM in the absence of target protein. Pmax is the maximum polarization of peptide^Flu at saturation with target protein. Kd is the equilibrium dissociation constant. […] Free fits are shown. Kd values were estimated as described.

Test [2] concerns the target Lyn SH3 domain-GST fusion protein (Homo sapiens, UniProt P07948). The test can be described thus: Fluorescence polarization direct binding assay, Lyn SH3. Particulars: 50 nM fluorescently labeled ligand, PBS pH 7.4; read-out: Kd, Lyn SH3. How it is done:
(§2) Polarization was measured by excitation with vertically polarized light at 485 nm and the fluorescence emission detected at 530 nm in both the vertical and horizontal directions. An average of five measurements were recorded for each well. Samples were equilibrated at room temperature for 25 min before analysis, a time sufficient for the binding reactions to reach equilibrium. The polarization data were fit using Kaleidagraph v3.6 software to Eq. 5, which is derived from first principles without assumptions. […] In this equation, Pobs is the observed polarization value at any given concentration of target protein (GST•SH3 domain). Pmin is the polarization of peptide^Flu at 50 nM in the absence of target protein. Pmax is the maximum polarization of peptide^Flu at saturation with target protein. Kd is the equilibrium dissociation constant. […] In these cases a lower limit Kd was estimated by setting Pmax equal to the observed polarization at the highest target protein concentration tested, which was often limited by solubility. […] Free fits are shown. Kd values were estimated as described. […] In several cases, the plots of polarization versus [SH3 domain] began to increase at high [SH3 domain] (>50 micromolar), perhaps because of a second binding event. In these cases (indicated by an asterisk (*) in Table 5), data above 50 micromolar target protein was excluded during the curve fits.

The target of test [3] is non-Src family SH3 domain (Ab1, Nck1, Grb2, Abp1). Kind of test: Fluorescence polarization binding to non-Src family SH3 domains. Particulars: data not shown. The method, then: Fluorescence polarization assays were performed with 50 nM fluorescently labeled miniature protein and the indicated SH3 domain-GST fusion protein in PBS (1 mM KH2PO4, 155 mM NaCl, 3 mM Na2HPO4 (pH 7.4)) supplemented with 1 mM DTT and using the Analyst™ AD 96·384 automated fluorescence plate reader (LjL Biosystems). Binding reactions (32 microliters) were analyzed within 384-well assay plates (Corning Inc., Plate #3654) using settings defined by Criterion Host software v.2.00.11 and z height 1 mm. Polarization was measured by excitation with vertically polarized light at 485 nm and the fluorescence emission detected at 530 nm in both the vertical and horizontal directions. An average of five measurements were recorded for each well. Samples were equilibrated at room temperature for 25 min before analysis, a time sufficient for the binding reactions to reach equilibrium. […]
In this equation, Pobs is the observed polarization value at any given concentration of target protein (GST•SH3 domain). […] The observed binding free energy, ΔG, was calculated from the relationship ΔG=−RT ln Kd^−1, where R is the universal gas constant (1.987×10^−3 kcal mol^−1 K^−1) and T is the temperature in Kelvin (298 K). Fluorescence polarization analysis of the binding of fluorescently labeled miniature proteins and Peptide 1 to c-Src SH3^P133L are shown in FIG. 11. […]
Background: Fluorescence polarisation rises when a labelled molecule tumbles more slowly, as on binding a larger partner.

In test [4] the target is T1, c-Src SH3 domain-GST fusion protein (Gallus gallus, UniProt P00523). The test can be described thus: Fluorescence polarization direct binding assay, c-Src SH3. The settings on record: 50 nM fluorescently labeled ligand, PBS pH 7.4; read-out: Kd, c-Src SH3. More on the design: species or system chicken. The method, then:
as §1

The target of another test is c-Src SH3^P133L (Gallus gallus, UniProt P00523, P133L). Kind of test: Fluorescence polarization direct binding assay, c-Src SH3^P133L. More on the design: species or system chicken. The settings on record: 50 nM fluorescently labeled ligand; lower limit estimated; read-out: Kd, c-Src P133L SH3. The method, then: as §1
Test [5] deals with T1, c-Src SH3 domain-GST fusion protein. The settings on record: literature value; read-out: Kd, c-Src SH3 (reported); cited from earlier work.
Test [6] addresses Fyn SH3 domain-GST fusion protein (Homo sapiens, UniProt P06241). The test can be described thus: Fluorescence polarization direct binding assay, Fyn SH3. Particulars: 50 nM fluorescently labeled ligand, PBS pH 7.4; read-out: Kd, Fyn SH3. The method, then: as §2
Test [7] concerns the target Lck SH3 domain-GST fusion protein (Homo sapiens, UniProt P06239). Kind of test: Fluorescence polarization direct binding assay, Lck SH3. The settings on record: 50 nM fluorescently labeled ligand, PBS pH 7.4; read-out: Kd, Lck SH3. The method, then:
as §2

The target of the next test is T2, Hck kinase (Homo sapiens, UniProt P08631).
T2 construct: His6 (N); made in house; host or cells: HighFive insect cells, co-infected with Hck and Csk baculovirus
T2 sequence (P08631 whole entry): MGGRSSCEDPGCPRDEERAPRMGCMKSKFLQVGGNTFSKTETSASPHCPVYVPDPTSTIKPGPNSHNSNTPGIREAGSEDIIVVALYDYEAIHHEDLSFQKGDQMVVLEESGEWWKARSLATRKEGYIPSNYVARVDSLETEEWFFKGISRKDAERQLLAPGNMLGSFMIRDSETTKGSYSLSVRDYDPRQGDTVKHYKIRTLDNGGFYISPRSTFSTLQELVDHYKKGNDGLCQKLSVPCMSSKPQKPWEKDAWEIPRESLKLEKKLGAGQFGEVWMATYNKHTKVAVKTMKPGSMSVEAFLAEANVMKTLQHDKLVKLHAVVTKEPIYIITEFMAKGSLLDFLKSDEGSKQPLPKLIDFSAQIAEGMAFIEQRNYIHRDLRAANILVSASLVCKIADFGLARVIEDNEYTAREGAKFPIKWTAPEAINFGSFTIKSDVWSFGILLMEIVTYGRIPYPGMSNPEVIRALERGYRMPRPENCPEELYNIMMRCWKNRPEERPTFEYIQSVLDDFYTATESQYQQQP
The test can be described thus: Hck kinase activation, NADH-coupled assay. The format is biochemical. The settings on record: Activator 50 micromolar. How it is done:
Activation of Hck kinase was measured using a validated NADH-coupled assay as described. Briefly, purified Hck kinase (15 micromolar) was first pre-incubated with 500 micromolar ATP and 20 mM MgCl2 for about 30 min on ice to initiate autophosphorylation of Y416. The autophosphorylated product (0.55 micromolar final concentration) was then incubated in Hck Reaction Buffer (20 mM MgCl2, 0.1 mM DTT, 20 μg/mL BSA, 100 mM HEPES (pH 7.5)) for 10 min at room temperature with the indicated concentration of Nef or miniature protein. At this time the remaining assay components (1 mM PEP, 0.2 mM NADH, 6 U pyruvate kinase (Type II from rabbit muscle, Sigma), 6 U L-lactic dehydrogenase (Type II from rabbit muscle, Sigma), 600 micromolar substrate peptide, and 500 micromolar ATP) were added to initiate the reaction (total volume 200 microliters) and the absorbance at 340 nm was monitored every 10 sec for 10 min using a Beckman DU 730 UVN is Spectrophotomer. The activation constant Kact for each ligand was calculated from the initial rate as a function of ligand concentration as previously described, using Eq. 6. Fold activation was calculated by dividing the rate in the presence of ligand by the rate in the absence of ligand.
va=Vact[L]/(Kact±[L]) Equation 6.
In this equation va is velocity measured in the presence of ligand minus the velocity measured in its absence; Vact is the maximal activated velocity minus the velocity measured in the absence of ligand; [L] is the concentration of activator and Kact is concentration of activator at half-maximal activation.

Sequence of Fyn SH3 domain-GST fusion protein (P06241 81-142): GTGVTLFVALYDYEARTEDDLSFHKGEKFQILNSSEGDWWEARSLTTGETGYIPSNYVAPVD
Sequence of Lck SH3 domain-GST fusion protein (P06239 62-128): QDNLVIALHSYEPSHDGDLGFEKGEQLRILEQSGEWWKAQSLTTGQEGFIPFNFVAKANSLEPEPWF
Sequence of Hck SH3 domain-GST fusion protein (P08631 77-137): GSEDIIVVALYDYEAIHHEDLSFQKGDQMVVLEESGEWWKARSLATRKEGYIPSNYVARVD
Sequence of Lyn SH3 domain-GST fusion protein (P07948 62-122): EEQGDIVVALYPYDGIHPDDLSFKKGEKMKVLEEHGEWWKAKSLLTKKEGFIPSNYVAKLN

For the compound `CC(C)C[C@H](NC(=O)[C@H](CCCNC(=N)N)NC(=O)[C@@H]1CCCN1C(=O)[C@H](CCCNC(=N)N)NC(=O)[C@H](CC(N)=O)NC(=O)[C@H](CCCNC(=N)N)NC(=O)[C@@H]1CCCN1C(=O)[C@@H]1CCCN1C(=O)[C@H](CC(C)C)NC(=O)[C@@H]1CCCN1C(=O)[C@@H]1CCCN1C(=O)[C@H](C)N)C(N)=O` [Peptide 1] (H-APPLPPRNRPRL-NH2), the Kd in test [1] is 870 to 2000 nM; in [2], 870 to 2000 nM; in test [3], above 20000 nM; in test [4] it was 1500 ± 100 nM; at c-Src SH3^P133L it was above 20000 nM; in [5], 1200 nM. Further, the values for the Kd in test [6] and in test [7] were 870 to 2000 nM and above 20000 nM, respectively. The same compound returned an Activity on Hck kinase of 33.9 ± 3.2 nmol/s. The Fold-Activation at Hck kinase (rate with ligand / rate without ligand) is 3 and 3 ± 1.
